Assay: wn = mass fraction of the nth substance listed
Conditions: 101 kPa, Liquid

CCC[n+]1ccn(C)c1.[Br-] [1-methyl-3-propylimidazolium bromide] + CN(C)C=O
Conditions	mass density, 288.15 K [kg/m3]	mass density, 293.15 K [kg/m3]	mass density, 298.15 K [kg/m3]	mass density, 303.15 K [kg/m3]	mass density, 308.15 K [kg/m3]	speed of sound, 288.15 K [m/s]	speed of sound, 293.15 K [m/s]	speed of sound, 298.15 K [m/s]	speed of sound, 303.15 K [m/s]	speed of sound, 308.15 K [m/s]
w1 = 0.006	955.471	950.721	945.962	941.197	936.424	1498.4	1479.2	1459.8	1440.5	1421.2
w1 = 0.0073	955.896	951.148	946.392	941.628	936.859	1498.7	1479.5	1460.1	1440.8	1421.5
w1 = 0.0101	956.834	952.089	947.339	942.58	937.812	1499.5	1480.2	1460.8	1441.4	1422.2
w1 = 0.012	957.413	952.669	947.92	943.162	938.398	1499.8	1480.3	1460.9	1441.6	1422.5
w1 = 0.0162	958.776	954.039	949.295	944.542	939.782	1500.8	1481.6	1462.2	1442.9	1423.7
w1 = 0.0204	960.154	955.416	950.675	945.932	941.175	1501.7	1482.2	1462.9	1443.6	1424.5
w1 = 0.0249	961.605	956.878	952.144	947.403	942.652	1502.7	1483.5	1464.2	1445	1425.8
w1 = 0.0303	963.324	958.602	953.872	949.136	944.395	1503.7	1484.4	1465.1	1445.9	1426.9
w1 = 0.0348	964.79	960.068	955.349	950.617	945.882	1504.8	1485.4	1466.2	1447	1428.1
w1 = 0.0405	966.57	961.858	957.139	952.415	947.684	1505.8	1486.5	1467.3	1448.2	1429.2
w1 = 0.0503	969.758	965.06	960.356	955.641	950.923	1507.8	1488.8	1469.7	1450.5	1431.6
w1 = 0.0586	972.333	967.639	962.94	958.234	953.523	1509.3	1490.1	1471	1452	1433.1
w1 = 1	1323.47	1319.84	1316.22	1312.6	1308.97	1699.3	1685	1672	1659.9	1648.3

— the NIST ThermoML archive (doi:10.1007/s10765-009-0648-5)
